Where “and” joins values, the source holds several entries; their conditions need not be identical. Identical values can stand only once. Square brackets hold non-standard residues; d marks the D form. Ends that are not written are not given here. Peptide text beside a SMILES is read from it.
Experiments:
[1] = system: MDR A. baumannii; experiment: microbe, parasite or virus in culture; details: for MIC in 0.2% albumin and 0.01% AcOH added CLSI standard condition, MDR A. baumannii: CAMHB plus 0.2% bovine serum albumin and 0.01% acetic acid, values marked * in Table 2; for Minimum inhibitory concentrations, MDR A. baumannii: CLSI broth microdilution, CAMHB with 50 mg/L Ca2+, 10 mg/L Mg2+, 5 × 10^5 CFU/ml, 18 h 37 °C, triplicate, strain ATCC BAA-1605
Summary of the method: (§1)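 Broth microdilution per CLSI in cation-adjusted Mueller–Hinton broth with added calcium (50 mg/L) and magnesium (10 mg/L); mid-log bacteria at a final 5 × 10^5 CFU/ml were incubated with peptide for 18 h at 37 °C. MIC was the lowest concentration without visible turbidity, in triplicate.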

[2] = system: MDR E. faecalis; experiment: microbe, parasite or virus in culture; details: for MIC in 0.2% albumin and 0.01% AcOH added CLSI standard condition, MDR E. faecalis: CAMHB plus 0.2% bovine serum albumin and 0.01% acetic acid, values marked * in Table 2
Summary of the method: as §1

[3] = system: MDR P. aeruginosa; experiment: microbe, parasite or virus in culture; details: for MIC in 0.2% albumin and 0.01% AcOH added CLSI standard condition, MDR P. aeruginosa: CAMHB plus 0.2% bovine serum albumin and 0.01% acetic acid, values marked * in Table 2; for Minimum inhibitory concentrations, MDR P. aeruginosa: CLSI broth microdilution, CAMHB with 50 mg/L Ca2+, 10 mg/L Mg2+, 5 × 10^5 CFU/ml, 18 h 37 °C, no visible turbidity, triplicate, strain CCARM 2180
Summary of the method: as §1

[4] = system: MDR S. aureus; experiment: microbe, parasite or virus in culture; details: for MIC in 0.2% albumin and 0.01% AcOH added CLSI standard condition, MDR S. aureus: CAMHB plus 0.2% bovine serum albumin and 0.01% acetic acid, values marked * in Table 2; for Minimum inhibitory concentrations, MDR S. aureus: CLSI broth microdilution, CAMHB with 50 mg/L Ca2+, 10 mg/L Mg2+, 5 × 10^5 CFU/ml, 18 h 37 °C, triplicate, strain KCCM 40510
Summary of the method: as §1

[5] = system: DMPC:DMPG liposomes; experiment: Isothermal titration calorimetry, peptide-liposome interaction; type: binding; details: ITC, PBS, 37 °C
Protocol: Liposomes were prepared using 1,2-dimyristoyl-sn-glycero-3-(phospho-rac-(1-glycerol)) (sodium salt) (DMPG) (Avanti, Alabama, USA); 1,2-dimyristoyl-sn-glycero-3-phosphocholine (DMPC) (Avanti); and cholesterol (Sigma, Darmstadt, Germany) were used. Bacterial membrane mimic DMPC/DMPG (7/3) unilamellar vesicles (LUVs), and mammalian membrane mimic DMPC/cholesterol (10/1) vesicles with 100-nm diameters were prepared using the freeze-thaw and extrusion method. Lipids were mixed and dissolved in methanol in round-bottomed flasks then evaporated and freeze-dried overnight, yielding a thin layer of lipid covering the glass wall. PBS was added to the lipid layer, after which the PBS-lipid layer was vortexed then frozen in liquid nitrogen and thawed in 50 °C water repeatedly until no visible layer remained. LiposoFast Liposome Factory Basic unit with stabilizer (Avestin, Ottawa, Canada) was then used to extrude the liposomes 50 times through a polycarbonate membrane filter (pore diameter, 100 nm; filter diameter, 0.75 inches) (Avestin). For circular dichroism, isothermal titration calorimetry, tryptophan fluorescence, and dynamic light scattering experiments, liposomes were reconstructed and resuspended in PBS (Welgene Inc, Gyeongsangbuk-do, Korea).
PC/PG liposome stock solutions and peptide solutions were diluted in PBS and degassed for 30 min. Peptide solutions (2 ml, 40 μM) were then loaded into a VP-ITC MicroCalorimeter (MicroCal, Northampton, USA). Liposome samples (600 μl, 2000 μM) were injected into the VP-ITC using a syringe. Measurement parameters were as follows: cell temperature, 37 °C; total injections, 30; reference power, 10; initial delay, 300; stirring speed, 300; edit mode, 10.0/12.0/200/2. Liposome solution (10 μl) was injected into the peptide solution 30 times. Each experiment was performed in duplicate. The results were calculated using MicroCal analysis.

[6] = system: A. baumannii strains; experiment: microbe, parasite or virus in culture; details: for Number of A. baumannii strains at MIC (μM) 0.63 / Number of A. baumannii strains at MIC (μM) 1.25 / Number of A. baumannii strains at MIC (μM) 2.5 / Number of A. baumannii strains at MIC (μM) 5 / Number of A. baumannii strains at MIC (μM) 10 / Number of A. baumannii strains at MIC (μM) ≤0.31 / Number of A. baumannii strains at MIC (μM) ≥20: of 30 strains
Protocol: Twenty-six A. baumannii strains were clinically isolated and gifted to us by the Kyungpook National University School of Medicine. One A. baumannii strain (ATCC 17978) was purchased and gifted to us by Kyungpook National University School of Medicine. One A. baumannii strain and 10 K. pneumoniae strains (NCCP) were purchased from the National Culture Collection for Pathogens.
To assess antimicrobial activity, the MIC50 and MIC90 were measured using broth microdilution following CLSI guidelines. […] Each experiment was performed in triplicate. Meropenem (Sigma, Darmstadt, Germany) and colistin were used as control antibiotics. Cation-adjusted Mueller–Hinton broth (CAMHB) (Becton, Dickinson and Company, Franklin Lakes, USA) with supplied calcium (50 mg/L) and magnesium (10 mg/L) was used for the CLSI-test condition. Bacteria in midlog phase and peptides were separately diluted in CAMHB. The bacteria and peptide solutions were then mixed in 96-well polyethylene plates (SPL, Gyeonggi-do, Korea) and incubated for 18 h at 37 °C. The final concentration for bacteria was 5 × 10^5 CFU/ml. […] The MIC was defined to be the lowest concentration of peptide without visible turbidity by comparing with control antibiotics with the unaided eye. […] Each experiment was performed in triplicate. MICs in albumin and acetic acid solutions were measured using the same protocol but with 0.2% bovine serum albumin (Bovogen, Keilor, Australia), 0.01% acetic acid (Merck, New Jersey, USA), and CAMHB with both calcium and magnesium. In addition, MICs used in the antibiotic resistance acquisition test, the outer–inner membrane permeation test, and the transmembrane potential test and for FE-SEM were individually determined. The final bacterial concentrations used were as follows: for resistance acquisition, optical density (OD) 0.01; for outer–inner membrane permeability assays (LB), OD 0.1; for the transmembrane potential test, 1 × 10^8 CFU/ml (OD 0.171); […]. Inhibitory activity unidentifiable by direct observation was determined by counting the CFUs. Each experiment was performed at least twice.

RLWWRWIVR-NH2 [HLWCopW29-4]
20 µM: MIC in 0.2% albumin and 0.01% AcOH added CLSI standard condition, MDR A. baumannii [1] | MIC in 0.2% albumin and 0.01% AcOH added CLSI standard condition, MDR E. faecalis [2] | MIC in 0.2% albumin and 0.01% AcOH added CLSI standard condition, MDR S. aureus [4]
-23.6 cal/moldeg: ΔS ([5]; 2nd run)
> 20 µM: MIC in 0.2% albumin and 0.01% AcOH added CLSI standard condition, MDR P. aeruginosa [3] | Minimum inhibitory concentrations, MDR P. aeruginosa [3] | MIC at TM potential condition, S. aureus KCCM 40510 ([4]; bacteria OD 0.1 (5 x 10^7 cfu/ml), CAMHB, 1% DMSO)

WLVWIWRRR-NH2 [LWCopW29]
20 µM: MIC in 0.2% albumin and 0.01% AcOH added CLSI standard condition, MDR P. aeruginosa [3]
twofold: Increase of MIC when the S. aureus concentration was increased 200-fold ([4]; S. aureus)
5 µM: Minimum inhibitory concentrations, MDR E. faecalis ([2]; CLSI broth microdilution, CAMHB with 50 mg/L Ca2+, 10 mg/L Mg2+, 5 × 10^5 CFU/ml, 18 h 37 °C, triplicate, strain ATCC 51575) | Minimum inhibitory concentrations, MDR S. aureus [4]
19.4 cal/moldeg: ΔS ([5]; 1st run) | ΔS ([5]; 2nd run)
1.25 µM: Minimum inhibitory concentrations, MDR A. baumannii [1] | MIC in 0.2% albumin and 0.01% AcOH added CLSI standard condition, MDR E. faecalis [2] | MIC in 0.2% albumin and 0.01% AcOH added CLSI standard condition, MDR S. aureus [4]
0.31 µM: MIC in 0.2% albumin and 0.01% AcOH added CLSI standard condition, MDR A. baumannii [1]
> 20 µM: Minimum inhibitory concentrations, MDR P. aeruginosa [3]

CC[C@@H](C)[C@@H](NC(=O)[C@@H](Cc1c[nH]c2ccccc12)NC(=O)[C@@H](CCCNC(=N)N)NC(=O)[C@@H](CCCNC(=N)N)NC(=O)[C@H](N)CCCNC(=N)N)C(=O)N[C@H](Cc1c[nH]c2ccccc12)C(=O)N[C@@H](C(=O)N[C@@H](C(=O)N[C@H](Cc1c[nH]c2ccccc12)C(=O)N[C@H](CCCCN)C(N)=O)[C@H](C)CC)C(C)C [WCopW43] (H-[dR][dR][dR][dW][dI][dW][dV][dI][dW][dK]-NH2)
1: Number of A. baumannii strains at MIC (μM) ≤0.31 [6]
< 0.31 µM: MIC, A. baumannii Isolated strain 76 ([6]; strains, 18 h)
0: Number of A. baumannii strains at MIC (μM) 2.5 [6] | Number of A. baumannii strains at MIC (μM) 5 [6] | Number of A. baumannii strains at MIC (μM) 10 [6] | Number of A. baumannii strains at MIC (μM) ≥20 [6]
0.63 µM: Minimum inhibitory concentrations, MDR A. baumannii [1] | Minimum inhibitory concentrations, MDR S. aureus [4] | MIC50 ([6]; strains, 18 h) | MIC, A. baumannii Isolated strain 6 ([6]; strains, 18 h) | MIC, A. baumannii Isolated strain 10 ([6]; strains, 18 h) | MIC, A. baumannii Isolated strain 15 ([6]; strains, 18 h) | MIC, A. baumannii Isolated strain 19 ([6]; strains, 18 h) | MIC, A. baumannii Isolated strain 22 ([6]; strains, 18 h) | MIC, A. baumannii Isolated strain 39 ([6]; strains, 18 h) | MIC, A. baumannii Isolated strain 69 ([6]; strains, 18 h) | MIC, A. baumannii Isolated strain 71 ([6]; strains, 18 h) | MIC, A. baumannii Isolated strain 80 ([6]; strains, 18 h) | MIC, A. baumannii Isolated strain 82 ([6]; strains, 18 h) | MIC, A. baumannii Isolated strain 86 ([6]; strains, 18 h) | MIC, A. baumannii Isolated strain 102 ([6]; strains, 18 h) | MIC, A. baumannii Isolated strain 141 ([6]; strains, 18 h) | MIC, A. baumannii Isolated strain 152 ([6]; strains, 18 h) | MIC, A. baumannii KCCM 40203 ([6]; strains, 18 h)
15: Number of A. baumannii strains at MIC (μM) 0.63 [6]
1.25 µM: Minimum inhibitory concentrations, MDR P. aeruginosa [3] | MIC, A. baumannii ATCC 17978 ([6]; strains, 18 h) | MIC, A. baumannii Isolated strain 1 ([6]; strains, 18 h) | MIC, A. baumannii Isolated strain 3 ([6]; strains, 18 h) | MIC, A. baumannii Isolated strain 14 ([6]; strains, 18 h) | MIC, A. baumannii Isolated strain 16 ([6]; strains, 18 h) | MIC, A. baumannii Isolated strain 44 ([6]; strains, 18 h) | MIC, A. baumannii Isolated strain 66 ([6]; strains, 18 h) | MIC, A. baumannii Isolated strain 68 ([6]; strains, 18 h) | MIC, A. baumannii Isolated strain 89 ([6]; strains, 18 h) | MIC, A. baumannii Isolated strain 127 ([6]; strains, 18 h) | MIC, A. baumannii Isolated strain 144 ([6]; strains, 18 h) | MIC, A. baumannii Isolated strain 147 ([6]; strains, 18 h) | MIC, A. baumannii NCCP 14654 ([6]; strains, 18 h)
14: Number of A. baumannii strains at MIC (μM) 1.25 [6]

Colistin
< 0.31 µM: MIC, A. baumannii Isolated strain 16 ([6]; CLSI) | MIC, A. baumannii Isolated strain 19 ([6]; CLSI) | MIC, A. baumannii Isolated strain 39 ([6]; CLSI) | MIC, A. baumannii Isolated strain 76 ([6]; CLSI) | MIC, A. baumannii Isolated strain 141 ([6]; CLSI)
1.25 µM: MIC, A. baumannii Isolated strain 14 ([6]; CLSI) | MIC, A. baumannii Isolated strain 22 ([6]; CLSI) | MIC, A. baumannii Isolated strain 44 ([6]; CLSI) | MIC, A. baumannii Isolated strain 66 ([6]; CLSI) | MIC, A. baumannii Isolated strain 69 ([6]; CLSI) | MIC, A. baumannii Isolated strain 71 ([6]; CLSI) | MIC, A. baumannii Isolated strain 152 ([6]; CLSI) | MIC, A. baumannii NCCP 14654 ([6]; CLSI)
1: Number of A. baumannii strains at MIC (μM) 5 [6] | Number of A. baumannii strains at MIC (μM) ≥20 [6]
8: Number of A. baumannii strains at MIC (μM) 1.25 [6]
0.63 µM: MIC50 ([6]; 30 A. baumannii strains, including 27 carbapenem-resistant, CLSI broth microdilution) | MIC, A. baumannii ATCC 17978 ([6]; CLSI) | MIC, A. baumannii ATCC BBA 1605 ([6]; CLSI) | MIC, A. baumannii Isolated strain 1 ([6]; CLSI) | MIC, A. baumannii Isolated strain 15 ([6]; CLSI) | MIC, A. baumannii Isolated strain 68 ([6]; CLSI) | MIC, A. baumannii Isolated strain 80 ([6]; CLSI) | MIC, A. baumannii Isolated strain 82 ([6]; CLSI) | MIC, A. baumannii Isolated strain 86 ([6]; CLSI) | MIC, A. baumannii Isolated strain 102 ([6]; CLSI) | MIC, A. baumannii Isolated strain 127 ([6]; CLSI) | MIC, A. baumannii Isolated strain 144 ([6]; CLSI) | MIC, A. baumannii KCCM 40203 ([6]; CLSI)
3: Number of A. baumannii strains at MIC (μM) 2.5 [6]
1.25 µM and 0.63 µM: Minimum inhibitory concentrations, MDR P. aeruginosa [3]
0: Number of A. baumannii strains at MIC (μM) 10 [6]
5 µM: MIC, A. baumannii Isolated strain 147 ([6]; CLSI)
≤ 0.15 µM: MIC in 0.2% albumin and 0.01% AcOH added CLSI standard condition, MDR A. baumannii [1] | MIC in 0.2% albumin and 0.01% AcOH added CLSI standard condition, MDR P. aeruginosa [3]
5: Number of A. baumannii strains at MIC (μM) ≤0.31 [6]
> 20 µM: MIC, A. baumannii Isolated strain 3 ([6]; CLSI)
2.5 µM: MIC, A. baumannii Isolated strain 6 ([6]; CLSI) | MIC, A. baumannii Isolated strain 10 ([6]; CLSI) | MIC, A. baumannii Isolated strain 89 ([6]; CLSI)
12: Number of A. baumannii strains at MIC (μM) 0.63 [6]

Reference: paper PMC9643456, “Matching amino acids membrane preference profile to improve activity of antimicrobial peptides” (Communications Biology, 2022)
